Measured values: the NIST ThermoML archive (doi:10.1016/j.jct.2017.03.032)

Test: wn = mass fraction of the nth substance listed
Conditions: Gas, Burnett expansion method

F/C=C/C(F)(F)F [trans-1,3,3,3-tetrafluoropropene] + CC(C)C
Conditions | mass density [kg/m3]
315.14 K, 227.3 kPa, w1 = 0.65 | 7.7977
315.14 K, 297.2 kPa, w1 = 0.65 | 10.348
315.14 K, 301.4 kPa, w1 = 0.75 | 11.3213
315.14 K, 386 kPa, w1 = 0.65 | 13.7325
315.14 K, 392.5 kPa, w1 = 0.75 | 15.0241
315.14 K, 497.8 kPa, w1 = 0.65 | 18.2238
315.14 K, 506.8 kPa, w1 = 0.75 | 19.9379
315.14 K, 642.7 kPa, w1 = 0.75 | 26.4588
315.15 K, 173.5 kPa, w1 = 0.65 | 5.8759
315.15 K, 173.8 kPa, w1 = 0.7 | 6.1345
315.15 K, 175.6 kPa, w1 = 0.75 | 6.4285
315.15 K, 190.1 kPa, w1 = 0.85 | 7.5778
315.15 K, 229.1 kPa, w1 = 0.7 | 8.1409
315.15 K, 230.4 kPa, w1 = 0.75 | 8.531
315.15 K, 249.3 kPa, w1 = 0.85 | 10.0562
315.15 K, 299.1 kPa, w1 = 0.7 | 10.8034
315.15 K, 325.7 kPa, w1 = 0.85 | 13.3452
315.15 K, 390.1 kPa, w1 = 0.7 | 14.3368
315.15 K, 422.3 kPa, w1 = 0.85 | 17.7101
315.15 K, 497.7 kPa, w1 = 0.7 | 19.0258
315.15 K, 539.7 kPa, w1 = 0.85 | 23.5026
315.16 K, 185.3 kPa, w1 = 0.8 | 7.0584
315.16 K, 317.7 kPa, w1 = 0.8 | 12.4305
315.16 K, 333.2 kPa, w1 = 0.9 | 14.2331
315.16 K, 412.2 kPa, w1 = 0.8 | 16.4962
315.16 K, 529.7 kPa, w1 = 0.8 | 21.8918
315.17 K, 148.1 kPa, w1 = 0.9 | 6.0901
315.17 K, 194.6 kPa, w1 = 0.9 | 8.0819
315.17 K, 243 kPa, w1 = 0.8 | 9.3669
315.17 K, 255.2 kPa, w1 = 0.9 | 10.7253
315.17 K, 432.8 kPa, w1 = 0.9 | 18.8881
315.17 K, 551.9 kPa, w1 = 0.9 | 25.0657
320.12 K, 779.8 kPa, w1 = 0.8 | 33.8752
320.13 K, 286 kPa, w1 = 0.8 | 10.922
320.13 K, 373.2 kPa, w1 = 0.8 | 14.4942
320.13 K, 483.3 kPa, w1 = 0.8 | 19.2347
320.13 K, 616.7 kPa, w1 = 0.8 | 25.5259
320.14 K, 165.2 kPa, w1 = 0.8 | 6.2018
320.14 K, 168.8 kPa, w1 = 0.9 | 6.8698
320.14 K, 218.3 kPa, w1 = 0.8 | 8.2301
320.14 K, 221.7 kPa, w1 = 0.9 | 9.1166
320.14 K, 290.4 kPa, w1 = 0.9 | 12.0982
320.14 K, 378.8 kPa, w1 = 0.9 | 16.0551
320.14 K, 491 kPa, w1 = 0.9 | 21.3061
320.14 K, 621.3 kPa, w1 = 0.9 | 28.2744
320.15 K, 148.8 kPa, w1 = 0.7 | 5.1243
320.15 K, 195.8 kPa, w1 = 0.7 | 6.8002
320.15 K, 256.8 kPa, w1 = 0.7 | 9.0242
320.15 K, 335.6 kPa, w1 = 0.7 | 11.9756
320.15 K, 340.3 kPa, w1 = 0.65 | 11.7766
320.15 K, 435.2 kPa, w1 = 0.7 | 15.8926
320.15 K, 441.3 kPa, w1 = 0.65 | 15.6283
320.15 K, 556 kPa, w1 = 0.7 | 21.0901
320.15 K, 569.2 kPa, w1 = 0.65 | 20.7395
320.16 K, 152 kPa, w1 = 0.65 | 5.039
320.16 K, 154 kPa, w1 = 0.75 | 5.5344
320.16 K, 199.9 kPa, w1 = 0.65 | 6.687
320.16 K, 262 kPa, w1 = 0.65 | 8.8741
320.16 K, 266.1 kPa, w1 = 0.75 | 9.7466
320.16 K, 347.7 kPa, w1 = 0.75 | 12.9343
320.16 K, 577.4 kPa, w1 = 0.75 | 22.7785
320.16 K, 730.8 kPa, w1 = 0.75 | 30.2287
320.17 K, 203 kPa, w1 = 0.75 | 7.3444
320.17 K, 451.9 kPa, w1 = 0.75 | 17.1645
320.19 K, 162.2 kPa, w1 = 0.85 | 6.3277
320.19 K, 214.1 kPa, w1 = 0.85 | 8.3973
320.19 K, 279.4 kPa, w1 = 0.85 | 11.1439
320.19 K, 364.7 kPa, w1 = 0.85 | 14.7884
320.19 K, 472.3 kPa, w1 = 0.85 | 19.6252
320.19 K, 605 kPa, w1 = 0.85 | 26.0438
320.19 K, 764.8 kPa, w1 = 0.85 | 34.5619
325.1 K, 181 kPa, w1 = 0.85 | 6.9723
325.1 K, 219.4 kPa, w1 = 0.75 | 7.845
325.1 K, 287.7 kPa, w1 = 0.75 | 10.4108
325.1 K, 311.6 kPa, w1 = 0.85 | 12.2787
325.1 K, 374.7 kPa, w1 = 0.75 | 13.8158
325.1 K, 406.4 kPa, w1 = 0.85 | 16.2947
325.1 K, 488 kPa, w1 = 0.75 | 18.3343
325.1 K, 523.6 kPa, w1 = 0.85 | 21.624
325.1 K, 621.5 kPa, w1 = 0.75 | 24.3306
325.1 K, 668.2 kPa, w1 = 0.85 | 28.6964
325.1 K, 786.7 kPa, w1 = 0.75 | 32.2887
325.1 K, 844.6 kPa, w1 = 0.85 | 38.0818
325.11 K, 166.4 kPa, w1 = 0.7 | 5.6568
325.11 K, 167.1 kPa, w1 = 0.75 | 5.9115
325.11 K, 218.6 kPa, w1 = 0.7 | 7.5069
325.11 K, 237.8 kPa, w1 = 0.85 | 9.2525
325.11 K, 286.7 kPa, w1 = 0.7 | 9.9621
325.11 K, 373.4 kPa, w1 = 0.7 | 13.2204
325.11 K, 483.2 kPa, w1 = 0.7 | 17.5443
325.11 K, 617.3 kPa, w1 = 0.7 | 23.2823
325.13 K, 167.9 kPa, w1 = 0.65 | 5.518
325.13 K, 220.6 kPa, w1 = 0.65 | 7.3227
325.13 K, 289.1 kPa, w1 = 0.65 | 9.7176
325.13 K, 377.5 kPa, w1 = 0.65 | 12.8959
325.13 K, 484.7 kPa, w1 = 0.65 | 17.1136
325.13 K, 619.9 kPa, w1 = 0.65 | 22.7108
325.17 K, 238.4 kPa, w1 = 0.8 | 8.8968
325.17 K, 312.1 kPa, w1 = 0.8 | 11.8066
325.17 K, 407 kPa, w1 = 0.8 | 15.6681
325.17 K, 526.5 kPa, w1 = 0.8 | 20.7926
325.17 K, 669 kPa, w1 = 0.8 | 27.593
325.17 K, 846.3 kPa, w1 = 0.8 | 36.6175
325.18 K, 181.5 kPa, w1 = 0.8 | 6.704
325.18 K, 192.3 kPa, w1 = 0.9 | 7.7424
325.18 K, 252.4 kPa, w1 = 0.9 | 10.2747
325.18 K, 330.4 kPa, w1 = 0.9 | 13.6351
325.18 K, 430.4 kPa, w1 = 0.9 | 18.0945
325.18 K, 549.6 kPa, w1 = 0.9 | 24.0125
325.18 K, 703.2 kPa, w1 = 0.9 | 31.8661
330.12 K, 156.9 kPa, w1 = 0.75 | 5.446
330.12 K, 205.5 kPa, w1 = 0.75 | 7.2271
330.12 K, 271 kPa, w1 = 0.75 | 9.5908
330.12 K, 354.5 kPa, w1 = 0.75 | 12.7274
330.12 K, 457.3 kPa, w1 = 0.75 | 16.8904
330.12 K, 588.2 kPa, w1 = 0.75 | 22.4145
330.12 K, 750 kPa, w1 = 0.75 | 29.7454
330.12 K, 945.5 kPa, w1 = 0.75 | 39.4741
330.12 K, 981.5 kPa, w1 = 0.85 | 44.7652
330.13 K, 163.7 kPa, w1 = 0.85 | 6.1759
330.13 K, 215.1 kPa, w1 = 0.85 | 8.1958
330.13 K, 282.7 kPa, w1 = 0.85 | 10.876
330.13 K, 369.7 kPa, w1 = 0.85 | 14.4335
330.13 K, 612.7 kPa, w1 = 0.85 | 25.4187
330.13 K, 779.3 kPa, w1 = 0.85 | 33.7323
330.14 K, 476.1 kPa, w1 = 0.85 | 19.1537
330.2 K, 440.7 kPa, w1 = 0.7 | 15.4891
330.2 K, 559.7 kPa, w1 = 0.7 | 20.5552
330.2 K, 717.8 kPa, w1 = 0.7 | 27.2782
330.21 K, 338.1 kPa, w1 = 0.7 | 11.6715
330.21 K, 929.7 kPa, w1 = 0.9 | 43.8273
330.22 K, 153.7 kPa, w1 = 0.9 | 6.0465
330.22 K, 202.2 kPa, w1 = 0.9 | 8.024
330.22 K, 258.3 kPa, w1 = 0.7 | 8.7948
330.22 K, 265.5 kPa, w1 = 0.9 | 10.6483
330.22 K, 347.5 kPa, w1 = 0.9 | 14.131
330.22 K, 452.8 kPa, w1 = 0.9 | 18.7526
330.22 K, 576.5 kPa, w1 = 0.9 | 24.8861
330.22 K, 735.5 kPa, w1 = 0.9 | 33.0255
330.23 K, 145.4 kPa, w1 = 0.65 | 4.6896
330.23 K, 149.5 kPa, w1 = 0.7 | 4.9937
330.23 K, 192.1 kPa, w1 = 0.65 | 6.2233
330.23 K, 252.5 kPa, w1 = 0.65 | 8.2587
330.23 K, 272.1 kPa, w1 = 0.8 | 10.0277
330.23 K, 354.3 kPa, w1 = 0.8 | 13.3074
330.23 K, 463.4 kPa, w1 = 0.8 | 17.6597
330.23 K, 754.4 kPa, w1 = 0.8 | 31.1003
330.23 K, 951.7 kPa, w1 = 0.8 | 41.2719
330.24 K, 157.7 kPa, w1 = 0.8 | 5.6939
330.24 K, 196.7 kPa, w1 = 0.7 | 6.6269
330.24 K, 207.3 kPa, w1 = 0.8 | 7.5562
330.24 K, 330.6 kPa, w1 = 0.65 | 10.9596
330.24 K, 431.5 kPa, w1 = 0.65 | 14.544
330.24 K, 590.5 kPa, w1 = 0.8 | 23.435
330.24 K, 702.3 kPa, w1 = 0.65 | 25.6134
330.25 K, 548.5 kPa, w1 = 0.65 | 19.3004
